Reference: patent publication US8492374B2, “Azaazulene compounds” (Industrial Technology Research Institute, priority 2009, dated 2013)

Columns and labels:
Test in all cases: Kinase panel assay (SelectScreen Kinase Profiling, Invitrogen)
Type in all cases: biochemical
Settings in all cases: 1000 nM of compound B26
LCK = LCK (Homo sapiens, UniProt P06239)
Description: (§1) The kinase panel assay of compound B26 of this invention was performed by SelectScreen® Kinase Profiling Services of Invitrogen. The inhibitory effects of 1000 nM of compound B26 against various kinases whom shown >50% inhibitory effects are summarized in following Table 5.

PHKG1 = PHKG1 (Homo sapiens, UniProt Q16816)
Chain of PHKG1 (Q16816 whole entry): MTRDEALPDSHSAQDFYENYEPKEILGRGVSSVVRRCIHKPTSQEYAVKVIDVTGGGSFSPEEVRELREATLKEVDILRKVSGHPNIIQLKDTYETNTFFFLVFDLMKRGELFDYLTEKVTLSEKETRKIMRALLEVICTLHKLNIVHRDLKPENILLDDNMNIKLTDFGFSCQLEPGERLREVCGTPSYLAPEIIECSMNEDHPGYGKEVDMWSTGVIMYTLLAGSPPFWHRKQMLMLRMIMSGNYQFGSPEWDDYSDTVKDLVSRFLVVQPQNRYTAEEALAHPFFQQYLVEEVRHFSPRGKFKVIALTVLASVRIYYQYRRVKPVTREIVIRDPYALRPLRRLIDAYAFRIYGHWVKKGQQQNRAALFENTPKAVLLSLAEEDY
Description: as §1

MAP4K5 (KHS1) = MAP4K5 (KHS1) (Homo sapiens, UniProt Q9Y4K4)
Chain of MAP4K5 (KHS1) (Q9Y4K4 whole entry): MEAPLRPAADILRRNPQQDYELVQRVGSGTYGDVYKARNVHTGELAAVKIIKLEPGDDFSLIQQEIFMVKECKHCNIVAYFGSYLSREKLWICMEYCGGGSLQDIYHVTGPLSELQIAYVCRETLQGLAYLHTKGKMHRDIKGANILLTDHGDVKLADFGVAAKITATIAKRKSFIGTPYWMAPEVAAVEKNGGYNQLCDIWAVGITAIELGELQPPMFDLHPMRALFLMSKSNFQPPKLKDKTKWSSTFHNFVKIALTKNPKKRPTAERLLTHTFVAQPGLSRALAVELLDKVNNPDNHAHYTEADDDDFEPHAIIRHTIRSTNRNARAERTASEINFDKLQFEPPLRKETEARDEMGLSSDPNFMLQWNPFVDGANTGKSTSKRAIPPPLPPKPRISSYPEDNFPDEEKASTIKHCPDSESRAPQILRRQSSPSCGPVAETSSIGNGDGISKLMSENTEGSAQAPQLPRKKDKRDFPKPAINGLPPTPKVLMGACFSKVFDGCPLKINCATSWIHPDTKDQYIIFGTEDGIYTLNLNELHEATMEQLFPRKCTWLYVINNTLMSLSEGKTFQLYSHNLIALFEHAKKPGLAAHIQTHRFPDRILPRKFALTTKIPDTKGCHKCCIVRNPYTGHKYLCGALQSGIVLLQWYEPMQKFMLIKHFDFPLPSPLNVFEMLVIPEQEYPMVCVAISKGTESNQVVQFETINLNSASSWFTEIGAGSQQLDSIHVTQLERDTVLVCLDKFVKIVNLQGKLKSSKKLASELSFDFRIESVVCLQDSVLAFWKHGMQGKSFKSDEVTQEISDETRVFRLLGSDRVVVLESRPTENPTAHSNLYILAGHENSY
Description: as §1

CSF1R (FMS) = CSF1R (FMS) (Homo sapiens, UniProt P07333)
Description: as §1

SRC = SRC (Homo sapiens, UniProt P12931)
Description: as §1

YES1 = YES1 (Homo sapiens, UniProt P07947)
Chain of YES1 (P07947 whole entry): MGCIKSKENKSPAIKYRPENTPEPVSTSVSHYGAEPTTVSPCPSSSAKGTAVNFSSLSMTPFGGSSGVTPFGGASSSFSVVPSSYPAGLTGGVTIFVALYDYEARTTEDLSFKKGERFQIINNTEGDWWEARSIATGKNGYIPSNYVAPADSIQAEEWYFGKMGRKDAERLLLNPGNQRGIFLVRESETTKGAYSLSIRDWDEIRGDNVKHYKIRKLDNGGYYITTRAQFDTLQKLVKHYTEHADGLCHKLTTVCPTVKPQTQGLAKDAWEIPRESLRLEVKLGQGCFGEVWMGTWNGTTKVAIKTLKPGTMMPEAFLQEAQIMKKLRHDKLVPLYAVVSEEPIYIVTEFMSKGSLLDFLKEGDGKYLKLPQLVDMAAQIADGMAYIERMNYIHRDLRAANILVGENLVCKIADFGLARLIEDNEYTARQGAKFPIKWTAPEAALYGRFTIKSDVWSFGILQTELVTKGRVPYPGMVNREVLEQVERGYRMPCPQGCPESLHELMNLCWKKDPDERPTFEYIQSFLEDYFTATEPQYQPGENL
Description: as §1

SRC N1 = SRC N1 (Homo sapiens, UniProt P12931)
Description: as §1

LYN B = LYN B (Homo sapiens, UniProt P07948)
Description: as §1

NTRK3 (TRKC) = NTRK3 (TRKC) (Homo sapiens, UniProt Q16288)
Chain of NTRK3 (TRKC) (Q16288 32-839): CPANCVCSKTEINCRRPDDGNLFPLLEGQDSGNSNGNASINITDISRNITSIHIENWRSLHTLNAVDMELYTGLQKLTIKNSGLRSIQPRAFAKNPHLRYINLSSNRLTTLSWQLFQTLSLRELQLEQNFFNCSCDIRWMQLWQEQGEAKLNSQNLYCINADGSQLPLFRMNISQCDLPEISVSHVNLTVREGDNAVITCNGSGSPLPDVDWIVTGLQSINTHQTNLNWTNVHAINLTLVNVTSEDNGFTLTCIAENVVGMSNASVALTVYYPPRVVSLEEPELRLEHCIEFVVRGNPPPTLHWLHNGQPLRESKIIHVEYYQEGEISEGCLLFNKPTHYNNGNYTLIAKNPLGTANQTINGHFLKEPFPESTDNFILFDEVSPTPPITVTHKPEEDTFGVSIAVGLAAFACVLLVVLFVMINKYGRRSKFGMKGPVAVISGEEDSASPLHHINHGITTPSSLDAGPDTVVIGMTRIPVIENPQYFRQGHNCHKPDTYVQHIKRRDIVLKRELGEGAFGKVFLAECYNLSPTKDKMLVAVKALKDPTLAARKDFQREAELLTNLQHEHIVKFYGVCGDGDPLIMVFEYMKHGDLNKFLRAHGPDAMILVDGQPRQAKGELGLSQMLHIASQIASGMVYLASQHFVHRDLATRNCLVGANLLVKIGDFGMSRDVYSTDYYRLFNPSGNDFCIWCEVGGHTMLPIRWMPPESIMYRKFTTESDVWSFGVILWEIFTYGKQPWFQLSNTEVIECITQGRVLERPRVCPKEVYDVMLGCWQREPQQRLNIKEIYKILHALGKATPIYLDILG
Description: as §1

NTRK2 (TRKB) = NTRK2 (TRKB) (Homo sapiens, UniProt Q16620)
Description: as §1

FGFR2 = FGFR2 (Homo sapiens, UniProt P21802)
Description: as §1

AMPK A1/B1/G1 = AMPK A1/B1/G1 (Homo sapiens, UniProt Q13131)
Description: as §1

RET V804L = RET V804L (Homo sapiens, UniProt P07949, V804L)
Chain of RET V804L (P07949 29-1114 V804L): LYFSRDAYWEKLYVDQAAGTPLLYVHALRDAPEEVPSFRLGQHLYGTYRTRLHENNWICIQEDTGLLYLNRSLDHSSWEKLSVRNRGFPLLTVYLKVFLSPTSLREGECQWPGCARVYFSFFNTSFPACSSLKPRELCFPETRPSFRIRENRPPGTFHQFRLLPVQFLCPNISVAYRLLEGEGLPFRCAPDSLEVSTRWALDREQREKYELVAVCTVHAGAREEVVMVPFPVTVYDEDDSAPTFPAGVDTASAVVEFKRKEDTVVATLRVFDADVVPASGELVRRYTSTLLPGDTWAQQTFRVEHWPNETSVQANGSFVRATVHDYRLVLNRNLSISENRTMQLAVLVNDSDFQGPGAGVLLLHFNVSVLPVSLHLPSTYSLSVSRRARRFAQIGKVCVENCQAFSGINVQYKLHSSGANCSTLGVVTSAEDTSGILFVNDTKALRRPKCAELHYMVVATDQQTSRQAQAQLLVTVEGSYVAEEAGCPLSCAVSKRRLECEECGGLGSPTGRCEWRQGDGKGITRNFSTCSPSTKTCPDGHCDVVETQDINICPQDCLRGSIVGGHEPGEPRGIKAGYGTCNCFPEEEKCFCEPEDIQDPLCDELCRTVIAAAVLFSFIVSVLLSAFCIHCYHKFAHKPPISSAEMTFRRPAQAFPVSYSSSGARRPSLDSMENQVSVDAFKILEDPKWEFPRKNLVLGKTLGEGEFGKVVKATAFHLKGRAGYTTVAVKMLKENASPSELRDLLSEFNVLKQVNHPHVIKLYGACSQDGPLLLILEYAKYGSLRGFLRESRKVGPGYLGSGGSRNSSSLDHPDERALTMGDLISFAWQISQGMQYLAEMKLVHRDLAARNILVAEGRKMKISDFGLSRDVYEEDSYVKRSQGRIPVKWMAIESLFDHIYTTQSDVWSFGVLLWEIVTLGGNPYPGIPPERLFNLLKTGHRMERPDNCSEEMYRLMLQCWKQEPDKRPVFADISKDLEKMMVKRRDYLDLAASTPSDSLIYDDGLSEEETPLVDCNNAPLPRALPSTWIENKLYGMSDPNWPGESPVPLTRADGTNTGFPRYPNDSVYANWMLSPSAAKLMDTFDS
Description: as §1

FLT3 D835Y = FLT3 D835Y (Homo sapiens, UniProt P36888, D835Y)
Description: as §1

FGR = FGR (Homo sapiens, UniProt P09769)
Chain of FGR (P09769 whole entry): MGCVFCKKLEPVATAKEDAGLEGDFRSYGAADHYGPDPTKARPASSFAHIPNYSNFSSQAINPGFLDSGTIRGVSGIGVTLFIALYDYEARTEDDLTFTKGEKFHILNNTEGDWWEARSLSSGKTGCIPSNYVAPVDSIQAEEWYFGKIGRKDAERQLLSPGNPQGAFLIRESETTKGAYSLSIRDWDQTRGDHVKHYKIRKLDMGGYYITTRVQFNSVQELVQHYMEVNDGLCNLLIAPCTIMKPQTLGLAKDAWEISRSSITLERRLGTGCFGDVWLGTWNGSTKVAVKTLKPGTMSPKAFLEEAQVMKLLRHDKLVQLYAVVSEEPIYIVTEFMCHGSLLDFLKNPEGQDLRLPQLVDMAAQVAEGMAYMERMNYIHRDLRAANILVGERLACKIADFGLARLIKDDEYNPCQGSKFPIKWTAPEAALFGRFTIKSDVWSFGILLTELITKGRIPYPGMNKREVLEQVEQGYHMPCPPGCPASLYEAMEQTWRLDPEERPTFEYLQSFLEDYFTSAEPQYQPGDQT
Description: as §1

STK4 (MST1) = STK4 (MST1) (Homo sapiens, UniProt Q13043)
Chain of STK4 (MST1) (Q13043 whole entry): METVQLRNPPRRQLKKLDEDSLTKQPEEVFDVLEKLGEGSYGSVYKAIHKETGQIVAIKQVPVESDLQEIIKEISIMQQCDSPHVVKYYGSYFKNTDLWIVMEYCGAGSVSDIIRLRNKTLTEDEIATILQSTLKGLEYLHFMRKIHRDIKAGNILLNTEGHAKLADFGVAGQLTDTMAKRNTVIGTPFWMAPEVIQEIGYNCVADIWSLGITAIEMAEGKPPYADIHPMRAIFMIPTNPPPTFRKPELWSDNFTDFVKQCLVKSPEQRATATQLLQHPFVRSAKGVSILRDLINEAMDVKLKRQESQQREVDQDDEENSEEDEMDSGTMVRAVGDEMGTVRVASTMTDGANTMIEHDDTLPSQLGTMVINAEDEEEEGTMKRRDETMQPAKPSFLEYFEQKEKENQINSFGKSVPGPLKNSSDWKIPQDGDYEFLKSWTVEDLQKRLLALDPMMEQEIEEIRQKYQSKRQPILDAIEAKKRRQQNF
Description: as §1

NTRK1 (TRKA) = NTRK1 (TRKA) (Homo sapiens, UniProt P04629)
Description: as §1

CN1CCN(c2ccc3[nH]c(-c4c5cccccc-5[nH]c4=O)nc3c2)CC1 [Compound B26]
inhibition at 1 µM (LCK): 63% | inhibition at 1 µM (PHKG1): 53% | inhibition at 1 µM (MAP4K5 (KHS1)): 60% | inhibition at 1 µM (CSF1R (FMS)): 60% | inhibition at 1 µM (SRC): 50% | inhibition at 1 µM (YES1): 73% | inhibition at 1 µM (SRC N1): 52% | inhibition at 1 µM (LYN B): 51% | inhibition at 1 µM (NTRK3 (TRKC)): 76% | inhibition at 1 µM (NTRK2 (TRKB)): 84% | inhibition at 1 µM (FGFR2): 48% | inhibition at 1 µM (AMPK A1/B1/G1): 88% | inhibition at 1 µM (RET V804L): 79% | inhibition at 1 µM (FLT3 D835Y): 98% | inhibition at 1 µM (FGR): 69% | inhibition at 1 µM (STK4 (MST1)): 59% | inhibition at 1 µM (NTRK1 (TRKA)): 89%
